Assay results as given in patent US20040048816A1, “Restenosis treatment” (priority 2000, published 2004).

Columns and labels:
[1] = test system: primary human coronary smooth muscle cells; test: Flow cytometry of apoptosis in cultured SMCs (FITC-Annexin V / PI double staining); assay type: cell-based
Experimental: The effect of IFNγ on the survival of cultured proliferating SMCs was analyzed by flow cytometry. For this reason primary human coronary smooth muscle cells were obtained from CellSystems (Germany) and were grown in Smooth muscle cell growth medium (CellSystems) containing 5% fetal calf serum (CellSystems) at 37° C. in a humidified atmosphere of 5% CO2. SMCs were used between passages 2 and 4. Treatment with 1000 U/ml rh-IFNγ (R&D Systems) was performed for 16 h. For induction of cell death, SMCs were incubated at 37° C. for 1 h in HBSS containing 100 μmol/l H2O2 and 100 μmol/l ferrous sulfate. Afterwards the cells were further cultured in freshly prepared culture medium for 8 h. Cells were labelled with FITC-labelled Annexin V (Roche Diagnostics) and propidium iodide (PI) according to the manufacturer's instructions. 10^4 events were analyzed with a flow cytometer (Becton Dickinson).

[2] = test system: human coronary artery smooth muscle cells (CASMC); test: Transcriptome analysis (cDNA arrays) of treated cultured CASMC; assay type: cell-based; settings: 1000 U/ml IFN-γ, 16 hours, 37° C.
Experimental: To adapt the transcriptional profile of cultured human coronary artery smooth muscle cells (CASMC) (Clonetics) to that of neointima, CASMC were stimulated with IFN-g and performed transcriptome analysis as described above. CASMC were cultured as described in the manufacter's manual in growth medium until 50% confluency was reached. Afterwards cells were stimulated with 1000 U/ml IFN-γ (R&D, Germany) for 16 hours at 37° C. Cells were washed twice in PBS and RNA preparation, cDNA synthesis and amplification and transcriptome analysis was performed as described above.
As proliferating CASMC overexpress FKBP12 like neointima, this cell line can be employed as a potential surrogate cell line for neointima in respect to therapeutic effects of rapamycin. Therefore, in a first step, CASMC were incubated with lo0ng/ml rapamycin (Sigma) for 24 hours and transcriptome analysis was performed in order to monitore the therapeutic effect.
Afterwards, microscopic specimen of in-stent restenotic tissue are incubated with rapamycin and transcriptome analysis was performed as described herein above. Transcriptome/gene expression pattern of rapamycin treated CASMC was compared to the transcriptome of rapamycin-treated neointima to measured the effectiveness of CASMC as a surrogate cell line for neointima.

glycoprotein IIb/IIIa = target: T1, glycoprotein IIb/IIIa (Homo sapiens, UniProt P05106+P08514); settings: at 30 days after surgery; versus 10.6%; cited from earlier work
T1 construct: host or cells: patients in clinical trials (endogenous protein)

IFNγ: recombinant human interferon γ (R&D Systems), a cytokine mainly produced by T-lymphocytes
spontaneous apoptosis (apoptotic cells) ([1]; SMCs after 1000 U/ml rh-IFNγ for 16 h, untreated 10%): 6% | number of apoptotic cells after induction of apoptosis with H2O2 ([1]; SMCs, 1000 U/ml rh-IFNγ 16 h, then 100 μmol/l H2O2, without IFNγ 54%): 27% | gene expression pattern of CASMCs after incubation [2]: neointima-specific IFN-γ gene expression pattern could be generated

abciximab: monoclonal antibody recognizing glycoprotein IIb/IIIa
death rate, myocardial infarction and/or target vessel vascularization (glycoprotein IIb/IIIa): 5.3%
